Assays:
[1] = Cytotoxicity assay (CCK-8), Caco-2; format: cell-based; settings: human, CCK-8, 48 h treatment
[2] = Cytotoxicity assay (CCK-8), HCT-8; format: cell-based; settings: human, HCT-8 cells; CCK-8, 48 h treatment
[3] = tested on: HCoV-229E; experiment: Viral yield reduction (VYR) assay, HCoV-229E in MRC-5 cells; settings: read-out: EC50 (μM) HCoV-229E, progeny virus 24 h post-infection, mean ± SD
[4] = tested on: HCoV-NL63; experiment: Time-of-addition assay; format: cell-based
[5] = tested on: MRC-5 cells; settings: human
[6] = tested on: HCoV-NL63; experiment: Viral yield reduction (VYR) assay, HCoV-NL63 in Caco-2 cells; settings: read-out: EC50 (μM) HCoV-NL63, progeny virus 24 h post-infection, mean ± SD
[7] = Cytotoxicity assay (CCK-8), CRFK; format: cell-based, feline; settings: cat, CRFK cells; Figure 1C CCoV plot label; read-out: CRFK CC50 (label inside plot)
[8] = Cytotoxicity assay (CCK-8), NCTC clone 929; format: cell-based, murine; settings: mouse, NCTC clone 929 cells; Figure 1C MHV plot label; read-out: NCTC clone CC50 (label inside plot)
[9] = tested on: HCoV-OC43; experiment: Viral yield reduction (VYR) assay, HCoV-OC43 in HCT-8 cells; settings: read-out: EC50 (μM) HCoV-OC43, progeny virus 24 h post-infection, mean ± SD
[10] = in vitro; settings: human
[11] = 2 μM VV116, 2 μM Remdesivir, 300 μg/mL heparan sulfate, MOI 0.1, 24 h post-infection

CCC(CC)COC(=O)[C@H](C)N[P@](=O)(OC[C@H]1O[C@@](C#N)(c2ccc3c(N)ncnn23)[C@H](O)[C@@H]1O)Oc1ccccc1 [Remdesivir]
CC50 at 48 h [1]: > 100 µM | CC50 at 48 h [2]: > 100 µM | EC50 [3]: 0.056 ± 0.002 µM | Time-of-addition result overall ([4]; 2 μM Remdesivir, compared with VV116): comparable to that obtained for VV116 | CC50 [5]: > 100 µM | EC50 [6]: 0.495 ± 0.01 µM | CC50 at 48 h [7]: > 100 µM | CC50 at 48 h [8]: > 100 µM | EC50 [9]: 0.069 ± 0.001 µM | CC50 [10]: > 100 µM

heparan sulfate
Antiviral activity when added at the post-entry phase (NP Western blot) [4, 11]: abolished | Antiviral activity when added during the entry phase (NP Western blot) [4, 11]: demonstrated antiviral activity
